Experimental data from patent US9624241B2 (Incyte Corporation, priority 2013, dated 2017).
Where a name gives a salt, the structure may show the parent alone. Read-outs that look alike come from different tables or passages of the source.

Legend:
BRD4-BD2 = BRD4-BD2 (Homo sapiens (Human), UniProt O60885); experiment: BRD4 AlphaScreen Assay (Example A2), BRD4-BD2; format: binding; details: read-out: BRD4 BD-2 enzyme IC50
Procedure, shortened: (§1)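 Displacement of 50 nM biotinylated tetra-acetylated histone H4 peptide from BRD4 BD1 or BD2 (<1 nM) in Tris-HCl pH 7.5 buffer with DTT. Inhibitors serially diluted in DMSO, added first, then incubated 75 min in the dark at room temperature before AlphaScreen read. IC50 fitted from percent control activity versus log concentration.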

BRD4-BD1 = BRD4-BD1 (Homo sapiens (Human), UniProt O60885); experiment: BRD4 AlphaScreen Assay (Example A2), BRD4-BD1; format: binding; details: read-out: BRD4 BD-1 enzyme IC50
Procedure, shortened: as §1

[1] = Assay A2, AlphaScreen, BRD4-BD2
[2] = Assay A2, AlphaScreen, BRD4-BD1

| Compound | IC50 (BRD4-BD2; [1]) | IC50 (BRD4-BD1; [2]) | IC50 (BRD4-BD2) | IC50 (BRD4-BD1) |
| --- | --- | --- | --- | --- |
| CC(=O)N1CC=C(c2nc3ccc(-c4c(C)noc4C)c4c3n2[C@@H](c2ccccn2)CO4)CC1 [Example 110, (4S)-2-(1-acetyl-1,2,3,6-tetrahydropyridin-4-yl)-7-(3,5-dimethylisoxazol-4-yl)-4-pyridin-2-yl-4,5-dihydroimidazo[1,5,4-de][1,4]benzoxazine] | < 100 nM | < 100 nM | – | – |
| Cc1noc(C)c1-c1cc(CNC(=O)Cc2ccccc2)c2[nH]c(=O)n3c2c1OC[C@@H]3c1ccccn1 [Example 139, N-{[(4S)-7-(3,5-Dimethylisoxazol-4-yl)-2-oxo-4-pyridin-2-yl-1,2,4,5-tetrahydroimidazo[1,5,4-de][1,4]benzoxazin-9-yl]methyl}-2-phenylacetamide] | < 100 nM | < 100 nM | – | – |
| Cc1noc(C)c1-c1ccc2nc(C3CCCN(S(C)(=O)=O)C3)n3c2c1OC[C@@H]3c1ccccn1 (mixture of isomers) [Example 119, (4S)-7-(3,5-dimethylisoxazol-4-yl)-2-[1-(methylsulfonyl)piperidin-3-yl]-4-pyridin-2-yl-4,5-dihydroimidazo[1,5,4-de][1,4]benzoxazine (mixture of diastereomers)] | < 100 nM | < 100 nM | – | – |
| CC(=O)N1CCCC(c2nc3ccc(-c4c(C)noc4C)c4c3n2[C@@H](c2ccccn2)CO4)C1 (mixture of isomers) [Example 117, (4S)-2-(1-acetylpiperidin-3-yl)-7-(3,5-dimethylisoxazol-4-yl)-4-pyridin-2-yl-4,5-dihydroimidazo[1,5,4-de][1,4]benzoxazine (mixture of diastereomers)] | < 100 nM | < 100 nM | – | – |
| Cc1noc(C)c1-c1ccc2nc(N3CC(O)C3)n3c2c1OCC3c1cccnc1 (single isomer, unassigned) [Example 160B, 1-[7-(3,5-Dimethylisoxazol-4-yl)-4-pyridin-3-yl-4,5-dihydroimidazo[1,5,4-de][1,4]benzoxazin-2-yl]azetidin-3-ol] | 1000 to 10000 nM | 1000 to 10000 nM | – | – |
| Cc1noc(C)c1-c1ccc2[nH]c(=O)n3c2c1OCC3c1cccnc1C(N)=O (stereo not drawn) [Example 127, 3-[7-(3,5-Dimethylisoxazol-4-yl)-2-oxo-1,2,4,5-tetrahydroimidazo[1,5,4-de][1,4]benzoxazin-4-yl]pyridine-2-carboxamide trifluoroacetate] | – | – | < 100 nM | < 100 nM |
| Cc1noc(C)c1-c1ccc2nc(N3CC(O)C3)n3c2c1OCC3c1cccnc1 (single isomer, unassigned) [Example 160A, 1-[7-(3,5-Dimethylisoxazol-4-yl)-4-pyridin-3-yl-4,5-dihydroimidazo[1,5,4-de][1,4]benzoxazin-2-yl]azetidin-3-ol] | 100 to 1000 nM | 1000 to 10000 nM | – | – |
| Cc1noc(C)c1-c1cc(CNc2ccccc2)c2[nH]c(=O)n3c2c1OCC3c1ccccn1 (stereo not drawn) [Example 262, 9-(anilinomethyl)-7-(3,5-dimethylisoxazol-4-yl)-4-pyridin-2-yl-4,5-dihydroimidazo[1,5,4-de][1,4]benzoxazin-2(1H)-one] | < 100 nM | 1000 to 10000 nM | – | – |
| Cc1noc(C)c1-c1ccc2nc(N(C)CCO)n3c2c1OCC3c1ccccn1 (stereo not drawn) [Example 185, 2-[[7-(3,5-dimethylisoxazol-4-yl)-4-pyridin-2-yl-4,5-dihydroimidazo[1,5,4-de][1,4]benzoxazin-2-yl](methyl)amino]ethanol] | – | 100 to 1000 nM | < 100 nM | – |
| Cc1noc(C)c1-c1ccc2nc(C3=CCN(C(=O)OC(C)(C)C)CC3)n3c2c1OC[C@@H]3c1ccccn1 [Example 97, tert-Butyl 4-[(4S)-7-(3,5-dimethylisoxazol-4-yl)-4-pyridin-2-yl-4,5-dihydroimidazo[1,5,4-de][1,4]benzoxazin-2-yl]-3,6-dihydropyridine-1(2H)-carboxylate] | < 100 nM | < 100 nM | – | – |
| CC(=O)N1CCCN(c2nc3ccc(-c4c(C)noc4C)c4c3n2[C@@H](c2ccccn2)CO4)CC1 [Example 148, (4S)-2-(4-Acetyl-1,4-diazepan-1-yl)-7-(3,5-dimethylisoxazol-4-yl)-4-pyridin-2-yl-4,5-dihydroimidazo[1,5,4-de][1,4]benzoxazine] | < 100 nM | < 100 nM | – | – |
| Cc1noc(C)c1-c1cc(F)c2nc(N(C)C)n3c2c1OCC3c1cccnc1 (stereo not drawn) [Example 156, 7-(3,5-Dimethylisoxazol-4-yl)-9-fluoro-N,N-dimethyl-4-pyridin-3-yl-4,5-dihydroimidazo[1,5,4-de][1,4]benzoxazin-2-amine] | < 100 nM | 100 to 1000 nM | – | – |
| Cc1noc(C)c1-c1ccc2c3c1CCC(c1ccccc1)n3c(=O)n2C (racemic) [Example 121, 7-(3,5-Dimethylisoxazol-4-yl)-1-methyl-4-phenyl-5,6-dihydro-4H-imidazo[4,5,1-ij]quinolin-2(1H)-one] | < 100 nM | 100 to 1000 nM | – | – |
| Cc1noc(C)c1-c1cc(Br)c2[nH]c(=O)n3c2c1OCC3c1ccccc1 (stereo not drawn) [Example 45, 9-Bromo-7-(3,5-Dimethylisoxazol-4-yl)-4-phenyl-4,5-dihydroimidazo[1,5,4-de][1,4]benzoxazin-2(1H)-one] | < 100 nM | < 100 nM | – | – |
| Cc1noc(C)c1-c1ccc2[nH]c(=O)n3c2c1CCC3c1ccccc1 (stereo not drawn) [Example 120, 7-(3,5-Dimethylisoxazol-4-yl)-4-phenyl-5,6-dihydro-4H-imidazo[4,5,1-ij]quinolin-2(1H)-one] | < 100 nM | < 100 nM | – | – |
| CCC1(c2ccccn2)COc2c(-c3c(C)noc3C)ccc3[nH]c(=O)n1c23 (stereo not drawn) [Example 70, 7-(3,5-Dimethylisoxazol-4-yl)-4-ethyl-4-pyridin-2-yl-4,5-dihydroimidazo[1,5,4-de][1,4]benzoxazin-2(1H)-one 2,2,2-trifluoroacetate] | – | – | < 100 nM | < 100 nM |

Further lines, with some results ahead:

| IC50 (BRD4-BD2; [1]) | IC50 (BRD4-BD1; [2]) | Compound | IC50 (BRD4-BD2) | IC50 (BRD4-BD1) |
| --- | --- | --- | --- | --- |
| < 100 nM | < 100 nM | Cc1noc(C)c1-c1cc(C#N)c2[nH]c(=O)n3c2c1OCC3c1ccccn1 (stereo not drawn) [Example 269A, 7-(3,5-dimethylisoxazol-4-yl)-2-oxo-4-pyridin-2-yl-1,2,4,5-tetrahydroimidazo[1,5,4-de][1,4]benzoxazine-9-carbonitrile] | – | – |
| < 100 nM | < 100 nM | Cc1noc(C)c1-c1ccc2nc(C(N)=O)n3c2c1OC[C@@H]3c1ccccn1 [Example 96, (4S)-7-(3,5-Dimethylisoxazol-4-yl)-4-pyridin-2-yl-4,5-dihydroimidazo[1,5,4-de][1,4]benzoxazine-2-carboxamide] | – | – |
| < 100 nM | 100 to 1000 nM | Cc1noc(C)c1-c1ccc2[nH]c(=O)n3c2c1OCC3(CN)c1ccccn1 (stereo not drawn) [Example 73, 4-(Aminomethyl)-7-(3,5-dimethylisoxazol-4-yl)-4-pyridin-2-yl-4,5-dihydroimidazo[1,5,4-de][1,4]benzoxazin-2(1H)-one bis(2,2,2-trifluoroacetate)] | – | – |
| < 100 nM | < 100 nM | Cc1noc(C)c1-c1ccc2[nH]c(=O)n3c2c1OCC3c1cccnc1C(=O)NC1CC1 (single isomer, unassigned) [Example 134, N-Cyclopropyl-3-[7-(3,5-dimethylisoxazol-4-yl)-2-oxo-1,2,4,5-tetrahydroimidazo[1,5,4-de][1,4]benzoxazin-4-yl]pyridine-2-carboxamide] | – | – |
| 100 to 1000 nM | 1000 to 10000 nM | Cc1noc(C)c1-c1cc(Cl)c2[nH]c(=O)n3c2c1OCC3c1ccccn1 (single isomer, unassigned) [Example 266B, 9-chloro-7-(3,5-dimethylisoxazol-4-yl)-4-pyridin-2-yl-4,5-dihydroimidazo[1,5,4-de][1,4]benzoxazin-2(1H)-one] | – | – |
| < 100 nM | 100 to 1000 nM | Cc1noc(C)c1-c1cc(-c2ccc(O)nc2)c2[nH]c(=O)n3c2c1OC[C@@H]3c1ccccn1 [Example 259, (4S)-7-(3,5-dimethylisoxazol-4-yl)-9-(6-hydroxypyridin-3-yl)-4-pyridin-2-yl-4,5-dihydroimidazo[1,5,4-de][1,4]benzoxazin-2(1H)-one] | – | – |
| 100 to 1000 nM | 1000 to 10000 nM | Cc1noc(C)c1-c1cc(-c2ccnn2C)c2[nH]c(=O)n3c2c1OC[C@@H]3c1ccccn1 [Example 85, (4S)-7-(3,5-dimethylisoxazol-4-yl)-9-(1-methyl-1H-pyrazol-5-yl)-4-pyridin-2-yl-4,5-dihydroimidazo[1,5,4-de][1,4]benzoxazin-2(1H)-one 2,2,2-trifluoroacetate] | – | – |
| < 100 nM | 1000 to 10000 nM | Cc1noc(C)c1-c1cc(CN)c2[nH]c(=O)n3c2c1OC[C@@H]3c1ccccn1 [Example 137, (4S)-9-(Aminomethyl)-7-(3,5-dimethylisoxazol-4-yl)-4-pyridin-2-yl-4,5-dihydroimidazo[1,5,4-de][1,4]benzoxazin-2(1H)-one bis(trifluoroacetate)] | – | – |
| < 100 nM | < 100 nM | Cc1noc(C)c1-c1cc(Br)c2[nH]c(=O)n3c2c1OCC3c1ccccn1 (single isomer, unassigned) [Example 267B, 9-bromo-7-(3,5-dimethylisoxazol-4-yl)-4-pyridin-2-yl-4,5-dihydroimidazo[1,5,4-de][1,4]benzoxazin-2(1H)-one] | – | – |
| 100 to 1000 nM | 100 to 1000 nM | Cc1noc(C)c1-c1ccc2[nH]c(=O)n3c2c1OC(C(N)=O)C3c1ccccn1 (stereo not drawn) [Example 77, 7-(3,5-dimethylisoxazol-4-yl)-2-oxo-4-pyridin-2-yl-1,2,4,5-tetrahydroimidazo[1,5,4-de][1,4]benzoxazine-5-carboxamide 2,2,2-trifluoroacetate] | – | – |
| < 100 nM | < 100 nM | Cc1noc(C)c1-c1ccc2nc(C(=O)N(C)C)n3c2c1OC[C@@H]3c1ccccn1 [Example 91, (4S)-7-(3,5-Dimethylisoxazol-4-yl)-N,N-dimethyl-4-pyridin-2-yl-4,5-dihydroimidazo[1,5,4-de][1,4]benzoxazine-2-carboxamide] | – | – |
